In patent US12351561B2, “Crystalline (2S,4R)-5-(5'-chloro-2'-fluoro-[1,1'-biphenyl]-4-yl)-2-(ethoxymethyl)-4-(3-hydroxyisoxazole-5-carboxamido)-2-methylpentanoic acid and uses thereof” (THERAVANCE BIOPHARMA R&D IP, LLC, priority 2016, dated 2025):
Blank lines part the entries; values can stand above or below the molecule they belong to.

What was measured:
[1] = Dynamic moisture sorption (DMS) assessment; format: physicochemical
Experimental: In one embodiment, crystalline form I′ is characterized by the DMS isotherm in FIG. 4. […] The total moisture gain observed is less than 0.02% by weight when exposed to 5-90% relative humidity. No significant hysteresis is found between two consecutive sorption-desorption cycles. […] The crystalline form I′ remains non-hygroscopic and therefore may be characterized as anhydrous, non-hygroscopic or both.
DMS measurements were performed using a VTI atmospheric microbalance, SGA-100 system (VTI Corp., Hialeah, FL 33016). A weighed sample was used and the humidity was lowest possible value (close to 0% relative humidity) at the start of the analysis. The DMS analysis consisted of a scan rate of 5% relative humidity/step over the full humidity range of 5-90%. The DMS run was performed isothermally at 25° C.

[2] = Stability study of crystalline form (25° C./60% RH and accelerated 40° C./75% RH); format: physicochemical
Experimental: One challenge in pharmaceutical drug development relates to discovering a stable, crystalline form of a drug having a reasonably high melting point. One challenge of the present invention was that small crystals of the free acid of Compound I were difficult to obtain with the favorable physical properties mentioned above. Once achieved, the small crystals melted around 216° C. and an accelerated stability study of Compound I′ was conducted at the temperatures and % relative humidity (RH) reported below.

[3] = Assay 3.2: PK profile, oral bioavailability and renal excretion in human (SAD, 14C i.v. microtracer); format: in vivo; conditions: human, SAD clinical trial, confirmed by intravenous microtracer
Experimental: A Phase 1 single-ascending dose (SAD) clinical trial of Compound I′ (Form I), which converts to or dissolves to provide its soluble form Compound I in the body, was conducted in order to assess neprilysin inhibition for the treatment of a range of cardiovascular and renal diseases, including, e.g., chronic kidney disease, diabetic nephropathy, acute and chronic heart failure, heart failure with reduced ejection fraction, heart failure with preserved ejection fraction, post-myocardial infarction asymptomatic left ventricular dysfunction (post-MI asymptomatic LVD), subacute heart failure and resistant and isolated systolic hypertension. Safety and tolerability, pharmacokinetic (support for QD/BID dosing and non-renal excretion), pharmacodynamic (test for target engagement biomarkers cGMP and ANP), food effect, and absolute oral bioavailability and renal elimination using a ^14C intravenous microtracer, inter alia, were tested.
The Phase 1 study was a double-blind, randomized placebo-controlled single ascending dose study in healthy male and female volunteers randomized in a 4:1 ratio. The study enrolled 56 healthy volunteers over multiple weeks for the ascending-dose portion, which included cohorts (n=10/cohort of 8 active and 2 placebo) administered single ascending doses of 50 mg, 100 mg, 200 mg, 400 mg and 600 mg. A sixth cohort (n=6) was administered i.v. microtracer and oral doses of 10 μg and 100 mg, respectively.

[4] = target: T1, NEP (Homo sapiens, UniProt P08473); assay: Assay 4.1: NEP activity in human (cGMP), multiple-ascending dose study; format: in vivo; conditions: once-daily dose, trough (0 h) up to 24 h
T1 construct: from tissue; host or cells: healthy human volunteers (in vivo)
Experimental: The Phase 1 study was a double-blind, randomized placebo-controlled multiple ascending dose study in healthy male and female volunteers randomized in a 4:1 ratio. The study enrolled 50 healthy adult (19-55 years old) and elderly (65-80 years old) volunteers over multiple weeks for the ascending-dose portion, which included cohorts (n=10/cohort of 8 active and 2 placebo) administered (1) ascending doses of 50 mg, 100 mg, and 200 mg, (2) a dose of 10 mg studied in parallel with 200 mg for PK/PK, and (3) a dose of 100 mg for one elderly cohort. […] Additionally, renal elimination of Compound I was neglible after multiple dosing, e.g., <1% was observed on Day 1 and Day 14 for all subjects.
Part of the MAD clinical studies was to determine the mechanism/duration of action of Compound I after dosing in humans.

[5] = target: human neprilysin (NEP) (Homo sapiens, UniProt P08473); assay: in vitro human neprilysin inhibitor activity (pKi); format: biochemical
From the text: One measure of the ability of a compound to inhibit NEP activity is the inhibition constant (pKi). The pKi value is the negative logarithm to base 10 of the dissociation constant (Ki), which is typically reported in molar units. The compound of the invention has a pKi at NEP≥9.0.
The in vitro-to-in vivo extrapolation of drug behavior in a subject continues to improve (see, e.g., Chiba et al., AAPS J., 2009 June; 11 (2): 262-276). In the present invention, in vitro human neprilysin inhibitor activity was assessed in order to determine neprilysin inhibitory activity of Compound I and crystalline form I′. A threshold of pKi>9.0 was met. However, additional in vivo experiments were further performed in order to more accurately predict the behavior of Compound I and crystalline form I′ in a subject.

[6] = healthy subjects; cited from earlier work

Chain of human neprilysin (NEP) (P08473 whole entry): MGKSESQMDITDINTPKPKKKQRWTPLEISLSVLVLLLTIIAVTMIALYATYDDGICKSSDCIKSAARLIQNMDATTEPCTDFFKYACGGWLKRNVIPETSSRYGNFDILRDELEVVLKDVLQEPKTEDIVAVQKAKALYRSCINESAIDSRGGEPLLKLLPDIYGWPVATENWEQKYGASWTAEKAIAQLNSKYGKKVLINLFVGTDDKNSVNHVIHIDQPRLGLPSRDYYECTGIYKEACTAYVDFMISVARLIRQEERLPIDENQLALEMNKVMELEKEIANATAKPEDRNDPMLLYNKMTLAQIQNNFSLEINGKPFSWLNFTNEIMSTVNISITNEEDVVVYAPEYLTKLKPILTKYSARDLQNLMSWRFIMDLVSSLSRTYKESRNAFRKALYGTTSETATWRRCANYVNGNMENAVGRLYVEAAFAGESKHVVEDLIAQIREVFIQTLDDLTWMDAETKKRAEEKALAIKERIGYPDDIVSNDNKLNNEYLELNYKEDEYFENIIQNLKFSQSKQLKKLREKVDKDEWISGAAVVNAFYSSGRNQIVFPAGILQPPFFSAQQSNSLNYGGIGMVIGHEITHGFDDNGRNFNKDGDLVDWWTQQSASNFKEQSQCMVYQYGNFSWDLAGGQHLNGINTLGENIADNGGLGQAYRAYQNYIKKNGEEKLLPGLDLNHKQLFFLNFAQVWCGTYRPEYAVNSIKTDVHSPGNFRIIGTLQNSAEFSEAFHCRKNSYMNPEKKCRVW
T1 sequence (P08473 whole entry): as above

- hygroscopicity (DMS isotherm) ([1]; 5-90% relative humidity, two sorption-desorption cycles): non-hygroscopic solid
- total moisture gain ([1]; exposed to 5-90% relative humidity, 25° C.): less than 0.02 % by weight
- time for which the crystalline form remains stable ([2]; 25° C., 60% RH): at least 18 months
- Assay ([2]; 25° C., 60% RH, 0 months): 98.6 % (w/w)
- Water Content ([2]; 25° C., 60% RH, 0 months, LOQ = 0.2%): <LOQ
- Assay ([2]; 25° C., 60% RH, 3 months): 98.5 % (w/w)
- Assay ([2]; 25° C., 60% RH, 6 months): 99.2 % (w/w)
- Water Content ([2]; 25° C., 60% RH, 6 months, LOQ = 0.19%): <LOQ
- Assay ([2]; 25° C., 60% RH, 9 months): 99.0 % (w/w)
- Assay ([2]; 25° C., 60% RH, 12 months): 99.2 % (w/w)
- Water Content ([2]; 25° C., 60% RH, 12 months, LOQ = 0.19%): <LOQ
- Assay ([2]; 25° C., 60% RH, 18 months): 99.1 % (w/w)
- Assay ([2]; 40° C., 75% RH (accelerated), 0 months): 98.6 % (w/w)
- Water Content ([2]; 40° C., 75% RH (accelerated), 0 months, LOQ = 0.2%): <LOQ
- Assay ([2]; 40° C., 75% RH (accelerated), 1 month): 98.5 % (w/w)
- Assay ([2]; 40° C., 75% RH (accelerated), 3 months): 98.6 % (w/w)
- Water Content ([2]; 40° C., 75% RH (accelerated), 3 months, LOQ = 0.22%): <LOQ
- Assay ([2]; 40° C., 75% RH (accelerated), 6 months): 99.0 % (w/w)
- Water Content ([2]; 40° C., 75% RH (accelerated), 6 months, LOQ = 0.19%): <LOQ
- time for which the crystalline form remains stable ([2]; measured by accelerated conditions of 40° C., 75% RH (6 months taken as equivalent to 2 years at 25° C., 60% RH)): at least 2 years
- renal elimination (of total administered dose) [3]: less than 1%
- Ki [5]: ≤ 1 nM
Structure (SMILES): CCOC[C@](C)(C[C@@H](Cc1ccc(-c2cc(Cl)ccc2F)cc1)NC(=O)c1cc(O)no1)C(=O)O [Compound I′, (2S,4R)-5-(5′-chloro-2′-fluoro-[1,1′-biphenyl]-4-yl)-2-(ethoxymethyl)-4-(3-hydroxyisoxazole-5-carboxamido)-2-methylpentanoic acid]
- water detected ([2]; at 12-months): no quantifiable amount of water is detected
- target engagement (plasma cGMP) on Day 14 [4]: target engagement of all doses at trough (0 h) as well as all doses measured up to 24 h

Structure (SMILES): CCOC(=O)[C@H](C)C[C@@H](Cc1ccc(-c2ccccc2)cc1)NC(=O)CCC(=O)O [sacubitril]
- renal elimination [6]: 60%
